Results as given in patent publication US4853463A, “Amino acid derivatives” (Kissei Pharmaceutical Co., Ltd., priority 1985, dated 1989).

Legend:
human renin [1] = target: T1, human renin (Homo sapiens, UniProt P00797); assay: Human renin-sheep renin substrate reaction system in vitro; assay type: biochemical; conditions: purified human renin, semipurified sheep renin substrate, pH 7.4, 37° C., 15 minutes
T1 sequence (P00797 67-406): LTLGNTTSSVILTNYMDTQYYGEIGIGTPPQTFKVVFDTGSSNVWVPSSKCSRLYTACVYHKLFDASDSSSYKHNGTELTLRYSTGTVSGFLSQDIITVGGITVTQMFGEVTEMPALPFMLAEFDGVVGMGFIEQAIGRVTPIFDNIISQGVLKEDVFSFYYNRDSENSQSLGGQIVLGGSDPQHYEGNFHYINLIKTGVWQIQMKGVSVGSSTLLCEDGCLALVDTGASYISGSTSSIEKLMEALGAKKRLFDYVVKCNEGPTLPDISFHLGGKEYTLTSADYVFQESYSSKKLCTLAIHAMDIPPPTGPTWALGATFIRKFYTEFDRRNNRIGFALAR
Protocol: Human renin-sheep renin substrate reaction system in vitro
To a mixture containing 200 μl of a 125 mM pyrophosphate buffer (pH 7.4), 25 μl of a 20 mM aqueous solution of L-phenylalanyl-L-alanyl-L-prolin as an angiotensin converting enzyme inhibitor, 50 μl of semipurified sheep renin substrate (2000 ng angiotensin I/ml), 50 μl of dimethyl sulfoxide solution of an amino acid derivative of the present invention or 50 μl of dimethyl sulfoxide as a control and 150 μl of deionized water was added 25 μl of purified human renin (20-30 ng angiotensin I/ml/hr). The mixture was incubated for 15 minutes on a water bath at 37° C., and the reaction mixture was allowed to stand for 5 minutes on a water bath at 100° C. to stop the reaction. After cooling, 200 μl of the solution were taken out and the amount of angiotensin I produced by the addition of renin was determined by radioimmunoassay. The inhibitory effect was calculated by the following equation. [formula]
The molar concentration which produced a 50% inhibition (IC50) was calculated from the inhibition value obtained, and the results are shown below. [drawing 19]

human renin [2] = target: T1, human renin; assay: Renin inhibitory effect in a human high renin plasma; assay type: biochemical; set-up: human high renin plasma; from tissue; host or cells: human high renin plasma; conditions: phosphate buffer pH 7.0, 37° C., 60 minutes
Protocol: Renin inhibitory effect in a human high renin plasma
The mixture consisted of 500 μl of human high renin plasma, 50 μl of 20 mM L-phenylalanyl-L-alanyl-L-prolin, an angiotensin converting enzyme inhibitor, 350 μl of 0.5 M phosphate buffer (pH 7.0) containing 14 mM EDTA·2Na and 0.3% neomycin and 100 μl of appropriate concentration of amino acid compound of the present invention dissolved in DMSO or DMSO as a control. A 200 μl sample was taken out from the solution, and was cooled at 4° C. in an ice bath. The remaining sample (800 μl) was incubated for 60 minutes at 37° C. in a water bath. A 200 μl of sample was taken out from the incubated mixture, and chilled immediately in an ice bath. The amount of angiotensin I produced in both samples was determined by radioimmunoassay, and the net amount was estimated as a difference between the samples incubated at 37° C. and the sample cooled at 4° C.
The inhibitory effect was calculated by the following equation: [formula]
The molar concentration which produced 50% inhibition (IC50) was calculated from the inhibition value obtained, and the results are shown below. [drawing 32]

[3] = Hypotensive effect in marmoset; assay type: in vivo, common marmoset; conditions: 30 mg/kg oral, furosemide-treated high renin marmoset, Control 84.3 mmHg
Protocol: Hypotensive effect in marmoset
The experiment was carried out by using common marmoset as described in K. G. Hofbauer et al., Clinical and Experimental hypertension, Vol. A5, Nos. 7 & 8 (1983), pages 1237-1247.
Furosemide was orally administered three times to common marmoset at 15 mg per kilogram per day every other day to create a high renin state. Blood pressure of conscious marmoset was measured 3 days after the last administration of furosemide.
Measurement of blood pressure
A conscious male marmoset weighing 360 g was binded on a monkey chair, and tailarterial pressure was recorded on a pretismograph. The amino acid compound of the present invention, administred orally using a catheter.
(a) Compound: Isopropyl (2RS, 3S)-3-{N-[2-(1-naphthylmethyl)-3-(morpholinocarbonyl)propionyl]-L-alanyl}amino-2-hydroxy-5-methylhexanoate

human renin [4] = target: T1, human renin; set-up: human high renin plasma; from tissue; host or cells: human high renin plasma; conditions: reported at 1986 meetings; cited from earlier work

SMILES	IC50 (human renin [1])	IC50 (human renin [2])	also measured
CC(C)C[C@H](NC(=O)C(CC(=O)N1CCOCC1)Cc1cccc2ccccc12)C(=O)N[C@@H](CC(C)C)C(O)C(=O)OC(C)C (stereo partly drawn) [compound 2]	14 nM	16 nM	
COC(=O)C(O)[C@H](CC(C)C)NC(=O)[C@H](CC(C)C)NC(=O)C(CC(=O)N1CCOCC1)Cc1cccc2ccccc12 (mixture of isomers) [No. 3, Methyl (2RS, 3S)-3-{N-[2-(1-naphthylmethyl)-3-(morpholinocarbonyl)propionyl]-L-leucyl}amino-2-hydroxy-5-methylhexanoate]	30 nM	11 nM	
CC(C)CCNC(=O)C[C@H](O)[C@H](CC(C)C)NC(=O)[C@H](CC(C)C)NC(=O)C(CC(=O)N1CCOCC1)Cc1cccc2ccccc12 (stereo partly drawn) [No. 4, N-[2-(1-Naphthylmethyl)-3-(morpholinocarbonyl)-propionyl]-L-leucyl-statiyl isoamylamide]	80 nM	61 nM	
CC(C)C[C@H](NC(=O)CCNC(=O)C(CC(=O)N1CCOCC1)Cc1cccc2ccccc12)C(O)C(=O)OC(C)C (stereo partly drawn) [compound 10]	130 nM	46 nM	
CC(C)C[C@H](NC(=O)[C@@H](NC(=O)C(CC(=O)N1CCOCC1)Cc1cccc2ccccc12)C(C)C)C(O)C(=O)OC(C)C (stereo partly drawn) [compound 5]	6.6 nM	3.3 nM	
COC(=O)[C@@H]1CCCN1C(=O)CC(Cc1cccc2ccccc12)C(=O)N[C@@H](C)C(=O)N[C@@H](CC(C)C)C(O)C(=O)OC(C)C (stereo partly drawn) [compound 11]	59 nM	44 nM	
CC(C)C[C@H](NC(=O)[C@H](Cc1ccccc1)NC(=O)C(CC(=O)N1CCOCC1)Cc1cccc2ccccc12)C(O)C(=O)OC(C)C (stereo partly drawn) [compound 6]	48 nM	140 nM	
CC(C)C[C@H](NC(=O)[C@H](Cc1c[nH]c2ccccc12)NC(=O)C(CC(=O)N1CCOCC1)Cc1cccc2ccccc12)C(O)C(=O)OC(C)C (stereo partly drawn) [compound 7]	290 nM	510 nM	
CC(C)C[C@H](NC(=O)[C@H](C)NC(=O)C(CC(=O)N1CCOCC1)Cc1cccc2ccccc12)C(O)C(=O)OC(C)C (mixture of isomers) [No. 1, Isopropyl (2RS, 3S)-3-{N-[2-(1-naphthylmethyl)-3-(morpholinocarbonyl)propionyl]-L-alanyl}amino-2-hydroxy-5-methylhexanoate]	26 nM	20 nM	Blood pressure ([3]; 1 hour after administration): 75.8 mmHg; Blood pressure ([3]; 2 hours after administration): 70.0 mmHg; Blood pressure ([3]; 3 hours after administration): 70.0 mmHg; Blood pressure ([3]; 5 hours after administration): 70.0 mmHg; Blood pressure ([3]; 7 hours after administration): 72.6 mmHg
COC(=O)C(O)C(CC(C)C)NC(=O)[C@H](Cc1c[nH]cn1)NC(=O)C(CC(=O)NCCc1ccccc1)Cc1cccc2ccccc12 (stereo partly drawn)			Human renin inhibitory activity (human renin [4]): human renin inhibitory activity
CC(C)C[C@H](NC(=O)CNC(=O)C(CC(=O)N1CCOCC1)Cc1cccc2ccccc12)C(O)C(=O)OC(C)C (stereo partly drawn) [compound 9]	390 nM	200 nM	
CC(C)C[C@H](NC(=O)[C@H](CO)NC(=O)C(CC(=O)N1CCOCC1)Cc1cccc2ccccc12)C(O)C(=O)OC(C)C (stereo partly drawn) [compound 8]	26 nM	7.2 nM	
COC(=O)CN(C)C(=O)CC(Cc1cccc2ccccc12)C(=O)N[C@@H](C)C(=O)N[C@@H](CC(C)C)C(O)C(=O)OC(C)C (stereo partly drawn) [compound 12]	15 nM	13 nM	
